The test system of one data set is MIApaca/FG2 cells. The data set is described as follows: EC50 assay of small molecule activated γδ T cells to kill MIApaca/FG2 tumor cells (3-fold dilution protocol). Type of data set: cell-based. The note with it: 0.05-100 nM, read-out: MIApaca killing (EC50). As to the method: γδT cells and MIApaca/FG2 tumor cell lines were expanded and cultured in vitro. MIApaca/FG2 cells were digested, and the cells were counted and resuspended in DMEM complete medium, the density of the cell suspension was adjusted and added into a 96-well plate at 5×10^3 cells/100 […]/well for overnight incubation. On the next day, the test compound and the control compound were diluted at a 3-fold ratio with DMSO, and 4 μL of the diluted compound was added to 96 μL of culture medium for 25-fold dilution. 5 μL of 25-fold diluted compound was transferred to the corresponding well which had been plated with tumor cells, and the actual detection concentration was in the range of 0.05-100 nM. γδT cells were resuspended in γδT complete medium, and the density of the cell suspension was adjusted according to the effector-target ratio of E:T=2:1, and then the cell was added to the corresponding well at 1×10^4 cells/100 μL/well. After co-culture at 37° C., 5% CO2 for 20 hours, the cells were centrifuged. The supernatant was removed, and 50 μL of cell lysate containing fluorescein substrate was added to each well. After standing for 18 minutes in the dark, the signal of chemiluminescence was detected. The EC50 value was calculated by four-parameter fitting, with the corresponding signal value of the well with only tumor cells as the minimum killing value, and the corresponding value of the well without tumor cells as the maximum killing value. The killing data of MIApaca/FG2 cells is as follows: […]

Data set [1] can be described thus: Binding rate test of compounds and human plasma protein (equilibrium dialysis). To be noted: human plasma, equilibrium dialysis 6 hours, 37° C. Type of data set: in vitro ADME. As to the method:
(1) The dry dialysis membrane was soaked with ultrapure water for 20 min or more than 20 min, then soaked with 20% ethanol for 30 min to 1 h, and the membrane was rinsed with ultrapure water 2-3 times. Finally, the membrane was soaked with ultrapure water for 20 minutes for later use.
(2) The frozen plasma was thawed in a water bath at 37° C.
(3) The test compound was diluted into plasma preheated to 37° C. at a final concentration of 1 μM, and the final concentration of the control compound warfarin in plasma was 2 μM.
(4) The pre-treated dialysis membrane was assembled into the dialysis plate according to the specification of the product, and 120 μL of the receiving solution (100 mM phosphate buffer solution added 0.002% Tween 80) was added to one side of the permeable membrane in each dialysis well.
(5) 20 μL of each of the final solutions of the test compound and the control compound were added into a 96-well sample plate in duplicate, and the TO sample was obtained, which was stored in a refrigerator at −20° C. Another 20 μL of the above final solution was added to the other side of the membrane in the dialysis device in duplicate, and incubated at 37° C. by shaking at constant temperature for 6 hours.
(6) After 6 hours of incubation, 20 L of each of the dialyzed receiving solution and the administered plasma were weighed to obtain sample B and sample A in duplicate. The corresponding volume of corresponding blank plasma or receiving solution was added to sample B and sample A, respectively, so that the volume ratio of plasma to buffer in each sample well was 1:1. 300 μL of acetonitrile solution containing internal standard was added to all sample wells, and centrifuged after mixed uniformly.
(7) 200 μL of ultrapure water (150 μL for the control group) was added into the corresponding sample wells of the 96-well sample plate, and 300 μL of the supernatant (150 μL for the control group) was added into the sample well; the samples were analyzed after mixed uniformly. The free percentage and recovery rate of the compound in plasma were calculated using the following formula: Plasma protein binding rate (%)=1−free percentage, wherein free percentage (%)=CB/CA
wherein CB is the concentration of the compound in the receiving solution after equilibrium dialysis, CA is the concentration of the compound in the drug-dosed plasma after equilibrium dialysis, and CT0 is the initial concentration of the compound in plasma.
A general note: In equilibrium dialysis free small molecules cross a membrane that holds back macromolecules.

Data set [2] in a line: Stability experiment of compounds in human liver microsomes. The note with it: NADPH, 37° C., read-out: T1/2 in human liver microsomes. Type of data set: in vitro ADME. As to the method:
Compounds were prepared as a 10 mM stock solution with DMSO and then diluted with 80% acetonitrile-water to a 100 μM working solution for later use. Human liver microsomes were obtained from BIOIVT.
(1) The liver microsomes taken out from the refrigerator were placed in a 37° C. water bath thermostatic oscillator, pre-incubated for 5 min, and thawed for later use.
(2) A certain amount of NADPH was weighed and added to an appropriate amount of magnesium chloride solution to dissolve into a 2 mM solution for later use.
(3) A mixed solution of the warm incubation system (containing no β-NADPH) was prepared according to the proportions in the “composition of the experimental warm incubation system” above and dispensed at 165 μL/tubes (45 μL/tube for the negative control group and 120 μL/tube for the positive control group).
(4) For the sample at 0 min: 200 μL of internal standard working precipitant was added and then 30 μL of NADPH solution was added.
(5) For other samples: 135 μL NADPH solution was added to initiate the reaction (45 μL magnesium chloride solution was added for the negative control group), and incubated in a 37° C. water bath for 5, 15, 30, and 60 min (incubated in a 37° C. water bath for 60 min for the negative control group), then 60 μL was sampled and added to 200 µL of precipitant containing internal standard.
(6) For the positive control group: 90 L NADPH solution was added to initiate the reaction, and incubated in a 37° C. water bath for 5, 15 min, then 60 μL was sampled and added to 200 μL of precipitant containing internal standard.
(7) For neat sample: 297 μL of water was pipetted into a tube, 1000 μL of internal standard working solution was added, and 3 μL of test compound working solution was added.
(8) All samples were vortexed and centrifuged.
(9) 150 μL of the supernatant was sampled and added to 150 μL of water, mixed uniformly by vortex, and analyzed by LC-MS/MS. The half-life stability data of human liver microsomes is as follows: […]

[3] abbreviates: Homo sapiens, MIA PaCa-2, γδT cells + MIApaca/FG2, E:T=2:1, co-culture 20 hours.
Where [4] appears, read: γδT cells + MIApaca/FG2, E:T=2:1, co-culture 20 hours.

pEC50: −log10 of the molar value. Read-outs that look alike come from different tables or passages of the source.

The pEC50 is −log10 of the EC50, conventionally taken in molar units. The term fraction unbound denotes the share of the substance not bound to proteins or other matrix.

For `C/C(=C\CCP(=O)(N[C@@H](C)C(=O)O[C@H]1CO[C@H]2OCC[C@H]21)Oc1ccccc1)CO` (stereo partly drawn) [Compound 32, (3R,3aS,6aR)-hexahydrofuran[2,3-b]furan-3-yl (((E)-5-hydroxy-4-methylpent-3-en-1-yl)(phenoxy)phosphoryl)-L-alaninate], in the data set with MIApaca/FG2 cells (setting [3]), the negative logarithm of the EC50 (pEC50) is 9.68. This molecule gave a fraction unbound at 6 h, 1 μM in data set [1] of 0.214. In data set [2], the half-life turned out to be 11.4 min. With `C/C(=C\CCP(=O)(N[C@@H](C)C(=O)O[C@@H]1CCO[C@H](C)C1)Oc1ccccc1)CO` (stereo partly drawn) [Compound 33], in the data set on MIApaca/FG2 cells (setting [3]), the pEC50 was 9.19. For the same molecule, the fraction unbound at 6 h, 1 μM in data set [1] is 0.192. The half-life in data set [2] turned out to be 19.9 min.

Consider `C/C(=C\CCP(=O)(N[C@@H](C)C(=O)O[C@@H]1CCOC1)Oc1ccc(C)cc1)CO` (stereo partly drawn) [Compound 16], for which, in the data set with MIApaca/FG2 cells (setting [4]), the pEC50 is 9.26. Turning to `C/C(=C\CCP(=O)(N[C@@H](C)C(=O)O[C@@H]1CCOC1)Oc1ccc(Cl)cc1)CO` (stereo partly drawn) [Compound 15], in the data set on MIApaca/FG2 cells (setting [4]), the pEC50 was 9.70. Same read-out and setting: for `C/C(=C\CCP(=O)(N[C@@H](C)C(=O)OC1CCS(=O)(=O)CC1)Oc1ccccc1)CO` (stereo partly drawn) [Compound 28, 1,1-Dioxotetrahydro-2H-thiopyran-4-yl (((E)-5-hydroxy-4-methylpent-3-en-1-yl)(phenoxy)phosphoryl)-L-alaninate] the value was 9.06; for `C/C(=C\CCP(=O)(N[C@@H](C)C(=O)O[C@@H]1CCOC1)Oc1cccc2ccccc12)CO` (stereo partly drawn) [Compound 17], 9.92. On to `C/C(=C\CCP(=O)(N[C@@H](C)C(=O)OC1CCOCC1)Oc1ccccc1)CO` (stereo partly drawn) [Compound 20], for which the pEC50 in the data set on MIApaca/FG2 cells (setting [3]) was 9.32. In data set [1], this molecule had a fraction unbound at 6 h, 1 μM of 0.227. Besides, the half-life in data set [2] is 24 min. For `C/C(=C\CC(F)(F)P(=O)(N[C@@H](C)C(=O)OC1CCOCC1)Oc1ccccc1)CO` (stereo partly drawn) [Compound 38], in the data set on MIApaca/FG2 cells (setting [4]), the pEC50 was 9.19. Turning to `C/C(=C\CCP(=O)(NC(C)(C)C(=O)O[C@@H]1CCOC1)Oc1ccccc1)CO` (stereo partly drawn) [Compound 26, (R)-tetrahydrofuran-3-yl 2-((((E)-5-hydroxy-4-methylpent-3-en-1-yl)(phenoxy)phosphoryl)amino)-2-methylpropanoate], in the data set with MIApaca/FG2 cells (setting [4]), the pEC50 was 10.00. Take `C/C(=C\CC[P@@](=O)(N[C@@H](C)C(=O)O[C@@H]1CCOC1)Oc1ccccc1)CO` (single isomer, unassigned) [Compound 18]: in the data set with MIApaca/FG2 cells (setting [3]), the pEC50 was 9.70. In addition, the free fraction (fraction unbound) at 6 h, 1 μM in data set [1] was 0.178. Besides, the half-life in data set [2] was 20.9 min. In the same order, the values of `C[C@H](NP(=O)(CC/C=C(/CO)C(F)(F)F)Oc1ccccc1)C(=O)O[C@@H]1CCOC1` (stereo partly drawn) [Compound 27, (R)-tetrahydrofuran-3-yl (phenoxy((Z)-5,5,5-trifluoro-4-(hydroxymethyl)pent-3-en-1-yl)phosphoryl)-L-alaninate] are 9.64, 0.193 and 10.5 min. As to `C/C(=C\CCP(=O)(N[C@@H](C)C(=O)O[C@H]1C[C@@H](C)O[C@@H](C)C1)Oc1ccccc1)CO` (stereo partly drawn) [Compound 34, (2R,4r,6S)-2,6-dimethyltetrahydro-2H-pyran-4-yl (((E)-5-hydroxy-4-methylpent-3-en-1-yl)(phenoxy)phosphoryl)-L-alaninate], the negative logarithm of the EC50 (pEC50) in the data set on MIApaca/FG2 cells (setting [4]) was 8.99. Regarding `C/C(=C\CCP(=O)(N[C@@H](C)C(=O)O[C@H]1CCOC1)Oc1ccccc1)CO` (stereo partly drawn) [Compound 8, (S)-tetrahydrofuran-3-yl (((E)-5-hydroxy-4-methylpent-3-en-1-yl)(phenoxy)phosphoryl)-L-alaninate], the fraction unbound at 6 h, 1 μM in data set [1] is 0.168. For the same molecule, in data set [2], the half-life turned out to be 27.3 min. For the molecule `C/C(=C\CCP(=O)(N[C@@H](C)C(=O)OC1CC2(COC2)C1)Oc1ccccc1)CO` (stereo partly drawn) [Compound 30, 2-Oxaspiro[3.3]heptan-6-yl (((E)-5-hydroxy-4-methylpent-3-en-1-yl)(phenoxy)phosphoryl)-L-alaninate], the negative-log EC50 (pEC50) in the data set on MIApaca/FG2 cells (setting [3]) is 9.96. The molecule further showed a fraction unbound at 6 h, 1 μM in data set [1] of 0.359. For the same molecule, the half-life in data set [2] was determined as 24.4 min.

Regarding `C/C(=C\CCP(=O)(N[C@@H](C)C(=O)OC1CCN(CC(F)(F)F)CC1)Oc1ccccc1)CO` (stereo partly drawn) [Compound 31], the negative logarithm of the EC50 (pEC50) in the data set on MIApaca/FG2 cells (setting [3]) is 9.89. The molecule also showed a fraction unbound at 6 h, 1 μM in data set [1] of 0.129. For the same molecule, in data set [2], the half-life was found to be 3.91 min. Turning to `CC(=O)N1CCC(OC(=O)[C@H](C)NP(=O)(CC/C=C(\C)CO)Oc2ccccc2)CC1` (stereo partly drawn) [Compound 29], in the data set with MIApaca/FG2 cells (setting [4]), the negative logarithm of the EC50 (pEC50) is 8.79. The same measure, in the same setting: for `CC(C)OC(=O)[C@H](C)NP(=O)(CC/C=C(/CO)C(F)(F)F)Oc1ccccc1` (stereo partly drawn) [Compound 24, isopropyl (phenoxy((Z)-5,5,5-trifluoro-4-(hydroxymethyl)pent-3-en-1-yl)phosphoryl)-L-alaninate] the value was 9.11. Turning to `CC(C)OC(=O)[C@H](C)NP(=O)(CC/C=C(\F)CO)Oc1ccccc1` (stereo partly drawn) [Compound 23, Isopropyl (((Z)-4-fluoro-5-hydroxy-3-en-1-yl)(phenoxy)phosphoryl)-L-alaninate], the negative logarithm of the EC50 (pEC50) in the data set on MIApaca/FG2 cells (setting [4]) was 8.40.

Regarding `C/C(=C\CCP(=O)(N[C@@H](C)C(=O)O[C@@H]1CCNC(=O)C1)Oc1ccccc1)CO` (stereo partly drawn) [Compound 35, (R)-2-piperidone-4-yl (((E)-5-hydroxy-4-methylpent-3-en-1-yl)(phenoxy)phosphoryl)-L-alaninate], in the data set with MIApaca/FG2 cells (setting [3]), the pEC50 was 8.67. The fraction unbound at 6 h, 1 μM in data set [1] was 0.429. Moreover, the half-life in data set [2] came out at 82.5 min.

As to `C/C(=C\CCP(=O)(N[C@@H](C)C(=O)OCCO)Oc1ccccc1)CO` (stereo partly drawn) [Compound 25, 2-Hydroxyethyl (((E)-5-hydroxy-4-methylpent-3-en-1-yl)(phenoxy)phosphoryl)-L-alaninate], the pEC50 in the data set on MIApaca/FG2 cells (setting [4]) was 9.77. In data set [1], `C/C(=C\CCP(=O)(N[C@@H](C)C(=O)O[C@@H]1CCOC1)Oc1ccccc1)CO` (stereo partly drawn) [Compound 7, (R)-Tetrahydrofuran-3-yl (((E)-5-hydroxy-4-methylpent-3-en-1-yl)(phenoxy)phosphoryl)-L-alaninate] gave a fraction unbound at 6 h, 1 μM of 0.222. Also, the half-life in data set [2] is 21.6 min. Take `C/C(=C\CC(F)(F)P(=O)(N[C@@H](C)C(=O)O[C@@H]1CCOC1)Oc1ccccc1)CO` (stereo partly drawn) [Compound 37, (R)-tetrahydrofuran-3-yl (((E)-1,1-difluoro-5-hydroxy-4-methylpent-3-en-1-yl)(phenoxy)phosphoryl)-L-alaninate]: the pEC50 in the data set on MIApaca/FG2 cells (setting [3]) was 9.70. This molecule also had a free fraction (fraction unbound) at 6 h, 1 μM in data set [1] of 0.098. The half-life in data set [2] came to 8.11 min.

These data come from patent US20260207637A1, “MODULATOR FOR PROMOTING BINDING OF BUTYROPHILIN 3A1/2A1” (priority 2023, published 2026).
